Read-outs that look alike come from different tables or passages of the source.
What was measured:
Type in all cases: cell-based, human
[1] = tested on: p53^+/+ oxaliplatin-resistant HCT116 cells; test: MTT cytotoxicity assay, p53^+/+ oxaliplatin-resistant HCT116 cells; conditions: for IC50: p53^+/+ oxaliplatin-resistant, MTT, 72 h; for increase in IC50 (72 hr) compared to parental cells: p53^+/+ oxaliplatin-resistant vs p53^+/+ parental
Method: (§1) Tissue culture. HCT116 p53^+/+ and p53^−/− isogenic human colon cancer cells were kindly provided by Professor Bert Vogelstein (John Hopkins University, Baltimore, Md.). Drug-resistant HCT116 sub-lines were developed in the inventors' laboratory by repeated exposure to stepwise increasing concentrations of 5-FU, CPT-11 or oxaliplatin over a period of approximately ten months. Parental and drug-resistant HCT116 cell lines were grown in McCoy's 5A medium supplemented with 10% dialysed foetal calf serum (FCS), 50 μg/ml penicillin-streptomycin, 2 mM L-glutamine and 1 mM sodium pyruvate (all from GIBCO Invitrogen Corporation, Paisley, Scotland) and maintained at 37° C. in a humidified atmosphere containing 5% CO2. 5-FU-resistant p53^+/+ and p53^−/− HCT116 cells were maintained in the presence of 2 μM and 4 μM 5-FU respectively. CPT-11-resistant p53^+/+ and p53^−/− HCT116 cells were maintained in the presence of 1 μM and 3 μM CPT-11 respectively. […] Prior to each experiment, resistant sub-lines were cultured in the absence of drug for 48 hours.
(§2) Cytotoxicity studies. Cells were seeded at 2000 cells per well in 96-well microtiter plates. After 48 hours, cells were treated with a range of concentrations of 5-FU, CPT-11 or oxaliplatin.
(§3) After 72 hours, 25 μl of MTT dye (5 mg/ml) was added to each well and the plates were incubated at 37° C. for 3 hours. Dark-blue formazan crystals formed by live cells were dissolved in 200 μl of DMSO and absorbance in individual wells was determined at 570 nm using an Emax precision microplate reader (Molecular Devices, Sunnyvale, Calif.).

[2] = tested on: p53^−/− oxaliplatin-resistant HCT116 cells; test: MTT cytotoxicity assay, p53^−/− oxaliplatin-resistant HCT116 cells; conditions: for IC50: p53^−/− oxaliplatin-resistant, MTT, 72 h; for increase in IC50 (72 hr) compared to parental cells: p53^−/− oxaliplatin-resistant vs p53^−/− parental
Method: as §1, §2, §3

[3] = tested on: HCT116 p53^−/− parental cells; test: MTT cytotoxicity assay, HCT116 p53^−/− parental cells; conditions: for IC50: MTT, 72 h
Method: as §1, §2, §3

[4] = tested on: p53^−/− 5-FU-resistant HCT116 cells; test: MTT cytotoxicity assay, p53^−/− 5-FU-resistant HCT116 cells; conditions: p53^−/− 5-FU-resistant, MTT, 72 h
[5] = tested on: p53^−/− CPT-11-resistant HCT116 cells; test: MTT cytotoxicity assay, p53^−/− CPT-11-resistant HCT116 cells; conditions: for increase in IC50 (72 hr) compared to parental cells: p53^−/− CPT-11-resistant vs p53^−/− parental; for IC50: p53^−/− CPT-11-resistant, MTT, 72 h
[6] = tested on: HCT116 p53^+/+ parental cells; test: MTT cytotoxicity assay, HCT116 p53^+/+ parental cells; conditions: 72 h
Method: as §1, §2, §3

[7] = tested on: p53^+/+ 5-FU-resistant HCT116 cells; test: MTT cytotoxicity assay, p53^+/+ 5-FU-resistant HCT116 cells; conditions: for IC50: p53^+/+ 5-FU-resistant, MTT, 72 h
[8] = tested on: p53^+/+ CPT-11-resistant HCT116 cells; test: MTT cytotoxicity assay, p53^+/+ CPT-11-resistant HCT116 cells; conditions: for increase in IC50 (72 hr) compared to parental cells: p53^+/+ CPT-11-resistant vs p53^+/+ parental; for IC50: p53^+/+ CPT-11-resistant, MTT, 72 h
[9] = tested on: p53^+/+ oxaliplatin-resistant HCT116 cells; test: Flow cytometry cell cycle/apoptosis, p53^+/+ oxaliplatin-resistant cells; conditions: 72 hours
Method: as §1
(§4) Flow cytometry. Cells were seeded at 5×10^4 cells per well in 6-well plates. After 48 hours, cells were treated with a range of concentrations of 5-FU, CPT-11 or oxaliplatin. Seventy-two hours post-treatment, cells were harvested in 5 ml of 1× PBS/0.5 mM EDTA and pelleted by centrifugation at 1000 rpm/4° C. for 5 minutes. Cell pellets were washed once with 1× PBS/1% FCS, fixed in 70% ethanol and stained with propidium iodide. Analyses were performed on a Beckman Coulter Epics XL flow cytometer (Miami, Fla.).

[10] = tested on: p53^−/− HCT116 cells; test: PARP cleavage immunoblotting, p53^−/− HCT116 cells; conditions: 48 hours, Western blot
[11] = tested on: p53^−/− oxaliplatin-resistant HCT116 cells; test: Flow cytometry cell cycle/apoptosis, p53^−/− oxaliplatin-resistant cells; conditions: same concentrations as parental (1 μM, 5 μM)
Method: as §1
Flow cytometry. Cells were seeded at 5×10^4 cells per well in 6-well plates. After 48 hours, cells were treated with a range of concentrations of 5-FU, CPT-11 or oxaliplatin. Seventy-two hours post-treatment, cells were harvested in 5 ml of 1× PBS/0.5 mM EDTA and pelleted by centrifugation at 1000 rpm/4° C. for 5 minutes. […]

[12] = tested on: p53^−/− HCT116 parental cells; test: Flow cytometry cell cycle/apoptosis, p53^−/− HCT116 parental cells; conditions: 72 hours; for drug-induced apoptosis in p53^−/− compared to p53^+/+ parental cells: range of concentrations
[13] = tested on: p53^+/+ HCT116 parental cells; test: Flow cytometry cell cycle/apoptosis, p53^+/+ HCT116 parental cells; conditions: 72 hours
[14] = tested on: p53^+/+ HCT116 cells; test: PARP cleavage immunoblotting, p53^+/+ HCT116 cells; conditions: 48 hours, Western blot
[15] = tested on: p53^−/− CPT-11-resistant HCT116 cells; test: Flow cytometry cell cycle/apoptosis, p53^−/− CPT-11-resistant cells
[16] = tested on: p53^+/+ CPT-11-resistant HCT116 cells; test: Flow cytometry cell cycle/apoptosis, p53^+/+ CPT-11-resistant cells; conditions: 72 hours
Method: as §1, §4

[17] = tested on: p53^+/+ 5-FU-resistant HCT116 cells; test: Flow cytometry cell cycle/apoptosis, p53^+/+ 5-FU-resistant cells; conditions: p53^+/+ 5-FU-resistant cell line, data not shown
[18] = parental HCT116 p53^−/− vs p53^+/+
[19] = HCT116 p53^−/− parental, read-out: IC50(72 h)
[20] = HCT116 p53^+/+ parental, read-out: IC50(72 h)
[21] = Homo sapiens, HCT-116, read-out: IC50(72 h)

`CCc1c2c(nc3ccc(O)cc13)-c1cc3c(c(=O)n1C2)COC(=O)[C@]3(O)CC` [SN-38] showed an IC50 ([1]; read-out: SN-38 IC50(72 h)) of 3.7 nM, an IC50 ([2]; read-out: SN-38 IC50(72 h)) of 3.3 nM and an IC50 ([3]; p53^−/− Parental, read-out: SN-38 IC50(72 h)) of 4.2 nM. The “IC50 (72 h) in parental p53^+/+ and p53^−/− cells compared” value [3, 18] was “similar”, the IC50 ([4]; read-out: SN-38 IC50(72 h)) was 3.6 nM and the “increase in IC50 (72 hr) compared to parental cells” value (shortened to “increase in IC50 (72 hr)”) [5] was roughly 100 fold. For the same molecule, the IC50 ([5]; read-out: SN-38 IC50(72 h)) was 540 nM, the IC50 ([6]; p53^+/+ Parental, read-out: SN-38 IC50(72 h)) was 5.6 nM and the IC50 ([7]; read-out: SN-38 IC50(72 h)) was 6.5 nM. The “increase in IC50 (72 hr)” value [8] was roughly 10 fold and the IC50 ([8]; read-out: SN-38 IC50(72 h)) was 40 nM.

In the case of `O=C1[O][Pt]2([NH][C@@H]3CCCC[C@H]3[NH]2)[O]C1=O` [oxaliplatin], the “increase in IC50 (72 hr)” value [1] is reported as 31.0 fold, the IC50 ([1]; read-out: IC50(72 h)) is reported as 9400 nM and the “increase in IC50 (72 hr)” value [2] is reported as 10.5 fold. The IC50 ([2]; read-out: IC50(72 h)) was 17900 nM, the IC50 [3, 19] was 1700 nM and the “increase in IC50 (72 h) dose in p53^−/− compared to p53^+/+ cells” value [3, 18] was 5.7 fold. The cell cycle distribution ([9]; 0.5 μM and 1 μM) was “unaffected”, the cell cycle distribution ([9]; 5 μM) was “majority of cells were arrested in S-phase” and the “induction of apoptosis compared to parental cells” value [9] was “dramatically attenuated”. The IC50 ([4]; read-out: IC50(72 h)) was 1900 nM, the IC50 ([5]; read-out: IC50(72 h)) was 1700 nM and the PARP cleavage ([10]; 1 μM) was “not”. For the same molecule, the IC50 [6, 20] was 300 nM, the IC50 ([7]; read-out: IC50(72 h)) was 300 nM and the cell cycle distribution [11] was “no change in cell cycle distribution”. The IC50 ([8]; read-out: IC50(72 h)) was 300 nM, the cell cycle distribution ([12]; 1 μM) was “S-phase block and a moderate increase in the polyploid fraction” and the cell cycle distribution ([12]; 5 μM) was “majority of cells were arrested in G2/M phase”. For the same molecule, the “drug-induced apoptosis in p53^−/− compared to p53^+/+ parental cells” value [12] was “significantly attenuated”, the cell cycle distribution ([13]; 0.5 μM) was “majority of cells had arrested in G2/M-phase” and the “proportion of apoptotic cells” value ([13]; 1 μM and 5 μM, ~2% in control samples) was 40-50%. The PARP cleavage ([14]; 1 μM) was “observed”.

With `N.N.O=C([O-])C1(C(=O)[O-])CCC1.[Pt+2]` [carboplatin] the “increase in IC50 (72 hr)” value [1] was roughly 2 fold, the IC50 ([1]; read-out: IC50(72 h)) was 176000 nM and the “increase in IC50 (72 hr)” value [2] was roughly 2 fold. For the same molecule, the IC50 ([2]; read-out: IC50(72 h)) was 141000 nM, the IC50 [3, 19] was 78700 nM and the IC50 [6, 20] was 76000 nM.

For `N.N.[Cl][Pt][Cl]` [cisplatin], the IC50 ([1]; read-out: IC50(72 h)) was 7300 nM, the IC50 ([2]; read-out: IC50(72 h)) was 6700 nM and the IC50 [3, 19] was 5700 nM. It also gave an IC50 [6, 20] of 5400 nM.

`CCc1c2c(nc3ccc(OC(=O)N4CCC(N5CCCCC5)CC4)cc13)-c1cc3c(c(=O)n1C2)COC(=O)[C@]3(O)CC` [CPT-11, irinotecan] gave an IC50 [1, 21] of 2900 nM, an IC50 [2, 21] of 3500 nM and an IC50 ([3]; Homo sapiens, HCT-116, HCT116 p53^−/− parental, read-out: IC50(72 h)) of 3100 nM. For the same molecule, the “IC50 (72 h) in parental p53^+/+ and p53^−/− cells compared” value [3, 18] was “almost identical”, the cell cycle distribution ([15]; 0.5 μM and 1 μM) was “no G2/M arrest was observed” and the “apoptosis” value ([15]; 5 μM, 72 hours) was “no apoptosis was observed”. For the same molecule, the cell cycle distribution ([16]; 0.5 μM and 1 μM) was “almost completely insensitive”, the cell cycle distribution ([16]; 5 μM) was “significant G2/M arrest and accumulation of polyploid cells” and the degree of apoptosis ([16]; 5 μM) was roughly 14%. The IC50 [4, 21] was 2800 nM, the “cross-resistance examined using flow cytometry” value [17] was “not apparent” and the IC50 [5, 21] was 200000 nM. For the same molecule, the “increase in IC50 (72 hr)” value [5] was 65.0 fold, the PARP cleavage ([10]; 5 μM) was “evident” and the IC50 ([6]; Homo sapiens, HCT-116, HCT116 p53^+/+ parental, read-out: IC50(72 h)) was 3200 nM. The IC50 [7, 21] was 7200 nM, the “increase in IC50 (72 hr)” value ([7]; p53^+/+ 5-FU-resistant vs p53^+/+ parental) was roughly 2 fold and the IC50 [8, 21] was 30300 nM. For the same molecule, the “increase in IC50 (72 hr)” value [8] was 10.0 fold, the cell cycle distribution ([12]; 0.5 μM and 1 μM) was “dramatic G2/M cell cycle arrest” and the apoptotic cells ([12]; 5 μM, ~2% in control samples) was roughly 35%. For the same molecule, the “drug-induced apoptosis in p53^−/− compared to p53^+/+ parental cells” value [12] was “almost identical levels of apoptosis”, the cell cycle distribution ([13]; 0.5 μM) was “accumulation of cells in S-phase” and the cell cycle distribution ([13]; 1 μM) was “majority of cells were now arrested in G2/M”. For the same molecule, the “cells in the sub-G0/G1 apoptotic phase” value ([13]; 5 μM) was roughly 40% and the PARP cleavage ([14]; 5 μM) was “evident”.
